What is called EC50 is the concentration giving half of the maximal effect. A lower EC50 goes with greater potency.

Molecules are shown by their SMILES.

In patent US6790836B2, “Process for preparing indolopyrrolocarbazole derivatives, intermediates therefor, and preparation process of the intermediates” (Banyu Pharmaceutical Co., Ltd., priority 2000, dated 2004) one finds EC50 data, which are given here for four molecules.

The target of this test is T1, topoisomerase I (Homo sapiens, UniProt P11387).
T1 sequence (P11387 1-765): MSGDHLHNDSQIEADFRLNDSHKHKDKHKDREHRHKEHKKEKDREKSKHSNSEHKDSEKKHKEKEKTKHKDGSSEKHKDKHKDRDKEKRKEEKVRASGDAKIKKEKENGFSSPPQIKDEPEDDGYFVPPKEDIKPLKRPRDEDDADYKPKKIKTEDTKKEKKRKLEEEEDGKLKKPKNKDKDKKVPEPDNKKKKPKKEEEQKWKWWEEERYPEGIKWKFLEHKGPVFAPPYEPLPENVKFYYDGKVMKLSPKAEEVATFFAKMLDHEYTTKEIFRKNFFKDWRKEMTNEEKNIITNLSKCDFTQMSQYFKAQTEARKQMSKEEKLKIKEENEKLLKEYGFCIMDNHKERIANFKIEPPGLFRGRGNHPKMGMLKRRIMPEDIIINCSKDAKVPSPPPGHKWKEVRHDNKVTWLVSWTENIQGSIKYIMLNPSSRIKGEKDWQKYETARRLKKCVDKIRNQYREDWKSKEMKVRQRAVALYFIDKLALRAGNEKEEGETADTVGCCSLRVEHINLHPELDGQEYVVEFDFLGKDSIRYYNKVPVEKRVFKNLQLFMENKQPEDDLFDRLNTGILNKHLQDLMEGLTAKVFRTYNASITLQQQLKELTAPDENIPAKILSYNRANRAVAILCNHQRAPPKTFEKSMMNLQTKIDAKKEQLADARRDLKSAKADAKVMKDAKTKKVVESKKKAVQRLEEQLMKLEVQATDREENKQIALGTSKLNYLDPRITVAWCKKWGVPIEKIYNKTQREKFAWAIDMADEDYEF
Description: Topoisomerase I-inhibiting activity. In kind it is biochemical. The conditions noted are these: concentration of a compound needed to inhibit topoisomerase I activity by 50%. On the procedure:
Topoisomerase I-inhibiting activity was assayed by the method described in Yoshinari, T et al., Cancer Research, vol. 55, page 1310 (1995).
In the table, EC50 means the concentration of a compound needed to inhibit topoisomerase I activity by 50%.
`CN1C(=O)c2c(c3c4ccc(O)cc4n([C@@H]4O[C@H](CO)[C@@H](O)[C@H](O)[C@H]4O)c3c3[nH]c4cc(O)ccc4c23)C1=O` [Compound [b]] came in with an EC50 of 0.68 µM. With `O=C1c2c(c3c4ccc(OCc5ccccc5)cc4n(C4OC(COCc5ccccc5)C(OCc5ccccc5)C(OCc5ccccc5)C4OCc4ccccc4)c3c3[nH]c4cc(OCc5ccccc5)ccc4c23)C(=O)N1NC(CO)CO` [Example 2, 12,13-dihydro-2,10-dibenzyloxy-6-N-(1-hydroxymethyl-2-hydroxyethylamino)-13-(β-D-2,3,4,6-tetra-O-benzylglucopyranosyl)-5H-indolo[2.3-a]pyrrolo[3,4-c]-carbazole-5,7(6H)-dione] the figure was above 1000 µM; with `O=C1OC(=O)c2c1c1c3ccc(O)cc3[nH]c1c1c2c2ccc(O)cc2n1C1OC(CO)C(O)C(O)C1O` (stereo not shown) [Compound [c]], 0.18 µM; with `O=C1OC(=O)c2c1c1c3ccc(OCc4ccccc4)cc3[nH]c1c1c2c2ccc(OCc3ccccc3)cc2n1C1OC(COCc2ccccc2)C(OCc2ccccc2)C(OCc2ccccc2)C1OCc1ccccc1` [Example 1, 12,13-dihydro-2,10-dibenzyloxy-13-(β-D-2,3,4,6-tetra-O-benzylglucopyranosyl)-5H-indolo[2,3-a]carbazole-5,6-dicarboxylic anhydride], above 1000 µM.
